What was measured:
[1] = Metabolic stability in human liver microsomes; details: 1 µM compound; for CLblood, human microsomes: hepatic in vivo blood clearance calculated with well stirred liver model, '(stable)' given beside < 0.01; for Fmax, human microsomes: maximal oral bioavailability calculated with well stirred liver model, 0.5 mg/mL protein, '(stable)' given beside 100
human IRAK4 = molecular target: T1, human IRAK4 (Homo sapiens, UniProt Q9NWZ3); test: Human IRAK4 kinase activity inhibition assay (IRAK4 TR-FRET assay); assay type: biochemical; details: 1 mM ATP, GST-human IRAK4, average or median values
T1 construct: GST (N); made in house; host or cells: baculovirus-infected Hi5 (BTI-TN-5B1-4) insect cells
T1 sequence (Q9NWZ3 1-460): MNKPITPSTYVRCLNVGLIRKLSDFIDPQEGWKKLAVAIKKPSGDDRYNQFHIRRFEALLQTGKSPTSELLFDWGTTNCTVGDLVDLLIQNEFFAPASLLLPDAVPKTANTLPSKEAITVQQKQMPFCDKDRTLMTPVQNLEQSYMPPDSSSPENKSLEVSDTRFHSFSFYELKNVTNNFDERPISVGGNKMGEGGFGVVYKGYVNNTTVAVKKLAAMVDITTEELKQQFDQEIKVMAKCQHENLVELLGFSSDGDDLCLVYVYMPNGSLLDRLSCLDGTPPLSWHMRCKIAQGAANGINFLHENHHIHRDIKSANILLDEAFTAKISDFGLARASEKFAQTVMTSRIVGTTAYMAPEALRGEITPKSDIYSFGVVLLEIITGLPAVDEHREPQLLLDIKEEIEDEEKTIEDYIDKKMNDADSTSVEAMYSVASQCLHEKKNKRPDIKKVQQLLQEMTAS
Method in brief: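 Signal was the 665/620 nm emission ratio from a europium anti-mouse-IgG, anti-phosphoserine antibody and streptavidin-XL665 complex formed over 1 h at 22°C. It was scaled between no-enzyme (100%) and no-compound (0%) wells. Beforehand, compounds (20 µM down to 0.073 nM, 11 points) sat 15 min with roughly 0.2 nM insect-cell-expressed GST-human IRAK4 before phosphorylation of a biotinylated peptide substrate.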

canine Irak4 = molecular target: T2, canine Irak4 (Canis lupus familiaris, UniProt A0A8I3S726); test: Canine Irak4 kinase assay (TR-FRET); assay type: biochemical; details: 1 mM ATP, His6-tagged canine Irak4, average or median values
T2 sequence (A0A8I3S726 2-459): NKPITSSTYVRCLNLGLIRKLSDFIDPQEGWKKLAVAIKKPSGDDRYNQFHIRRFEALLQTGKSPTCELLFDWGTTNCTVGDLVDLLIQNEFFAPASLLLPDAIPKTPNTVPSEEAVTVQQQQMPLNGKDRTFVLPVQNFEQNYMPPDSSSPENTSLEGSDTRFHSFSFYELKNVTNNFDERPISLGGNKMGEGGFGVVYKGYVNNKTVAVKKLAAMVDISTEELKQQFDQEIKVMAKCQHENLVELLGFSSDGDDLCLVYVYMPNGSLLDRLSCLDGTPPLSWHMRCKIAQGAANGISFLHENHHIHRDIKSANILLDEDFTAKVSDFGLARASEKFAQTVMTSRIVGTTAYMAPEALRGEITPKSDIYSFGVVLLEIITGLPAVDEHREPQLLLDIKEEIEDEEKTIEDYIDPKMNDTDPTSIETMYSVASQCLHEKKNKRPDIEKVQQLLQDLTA

[2] = Metabolic stability in dog liver microsomes; assay type: in vitro ADME; details: 1 µM compound; for CLblood, dog microsomes: hepatic in vivo blood clearance calculated with well stirred liver model, '(stable)' given beside < 0.01; for Fmax, dog microsomes: maximal oral bioavailability calculated with well stirred liver model, 0.5 mg/mL protein, '(stable)' given beside 100
Procedure: From the half-life the intrinsic clearances were calculated.

SMILES	CLblood, human microsomes [1]	Fmax, human microsomes [1]	IC50 (human IRAK4) [nM]	IC50 (canine Irak4) [nM]	CLblood, dog microsomes [2]	Fmax, dog microsomes [2]
CC(C)(O)C1CCN(c2nc(NC3CCS(=O)(=O)C3)nc3c2cnn3-c2cccc(C(F)(F)F)c2)CC1 (single isomer, unassigned; (+)) [Example I-4-2, (+)-2-(1-{6-[(1,1-dioxidotetrahydrothiophen-3-yl)amino]-1-[3-(trifluoromethyl)phenyl]-1H-pyrazolo[3,4-d]pyrimidin-4-yl}piperidin-4-yl)propan-2-ol]	0.14 L/h/kg	89%	8.27	8.54		
O=C1C[C@H](Nc2nc(N3CC(N4CCOCC4)C3)c3cnn(-c4cccc(C(F)(F)F)c4)c3n2)CN1 [Example I-1-1, (4S)-4-({4-[3-(morpholin-4-yl)azetidin-1-yl]-1-[3-(trifluoromethyl)phenyl]-1H-pyrazolo-[3,4-d]pyrimidin-6-yl}amino)pyrrolidin-2-one]			3.04	3.19		
CC(C)(O)C1CCN(c2nc(N[C@@H]3CNC(=O)C3)nc3c2cnn3-c2cccc(C(F)(F)F)c2)CC1 [Example I-2-1, (4S)-4-({4-[4-(2-hydroxypropan-2-yl)piperidin-1-yl]-1-[3-(trifluoromethyl)phenyl]-1H-pyrazolo[3,4-d]pyrimidin-6-yl}amino)pyrrolidin-2-one]	0.32 L/h/kg	76%	7.19	8.7		
CC(C)(O)C1CCN(c2nc(NC3CCS(=O)(=O)CC3)nc3c2cnn3-c2cccc(C(F)(F)F)c2)CC1 [Example I-5, 2-(1-{6-[(1,1-dioxidotetrahydro-2H-thiopyran-4-yl)amino]-1-[3-(trifluoromethyl)phenyl]-1H-pyrazolo[3,4-d]pyrimidin-4-yl)piperidin-4-yl)propan-2-ol]	0.09 L/h/kg	93%	10.5	9.27		
O[C@H]1C[C@@H](Nc2nc(N3CC(N4CCOCC4)C3)c3cnn(-c4cccc(C(F)(F)F)c4)c3n2)C1 [Example I-72, cis-3-({4-[3-(morpholin-4-yl)azetidin-1-yl]-1-[3-(trifluoromethyl)phenyl]-1H-pyrazolo[3,4-d]pyrimidin-6-yl}amino)cyclobutanol]	0.28 L/h/kg	79%	7.31		0.10 L/h/kg	95%
CN1CC[C@H](Nc2nc(N3CCC(C(C)(C)O)CC3)c3cnn(-c4cccc(C(F)F)c4)c3n2)C1 [II-4, 2-[1-(1-[3-(difluoromethyl)phenyl]-6-{[(3S)-1-methylpyrrolidin-3-yl]amino}-1H-pyrazolo-[3,4-d]pyrimidin-4-yl)piperidin-4-yl]propan-2-ol]	< 0.01 (stable) L/h/kg	100 (stable) %	3.33		< 0.01 (stable) L/h/kg	100 (stable) %
CC(C)(O)C1CCN(c2nc(NC3CCS(=O)(=O)CC3)nc3c2cnn3-c2cccc(C(F)F)c2)CC1 [II-5, 2-(1-{1-[3-(difluoromethyl)phenyl]-6-[(1,1-dioxidotetrahydro-2H-thiopyran-4-yl)amino]-1H-pyrazolo[3,4-d]pyrimidin-4-yl}piperidin-4-yl)propan-2-ol]	0.10 L/h/kg	93%	3.45		0.24 L/h/kg	89%
CC(C)(O)C1CCN(c2nc(N[C@H]3CCS(=O)(=O)C3)nc3c2cnn3-c2cccc(C(F)F)c2)CC1 [II-6, 2-[1-(1-[3-(difluoromethyl)phenyl]-6-{[(3S)-1,1-dioxidotetrahydrothiophen-3-yl]amino}-1H-pyrazolo[3,4-d]pyrimidin-4-yl)piperidin-4-yl]propan-2-ol]	0.19 L/h/kg	86%	5.49		0.46 L/h/kg	78%
CC(C)(O)C1CCN(c2nc(NC3CN(S(C)(=O)=O)C3)nc3c2cnn3-c2cccc(C(F)F)c2)CC1 [II-12, 2-[1-(1-[3-(difluoromethyl)phenyl]-6-{[1-(methylsulfonyl)azetidin-3-yl]amino}-1H-pyrazolo[3,4-d]pyrimidin-4-yl)piperidin-4-yl]propan-2-ol]	0.25 L/h/kg	81%	2.98		0.42 L/h/kg	80%
O[C@H]1C[C@@H](Nc2nc(N3CC(N4CCOCC4)C3)c3cnn(-c4cccc(C(F)F)c4)c3n2)C1 [II-24, cis-3-({1-[3-(difluoromethyl)phenyl]-4-[3-(morpholin-4-yl)azetidin-1-yl]-1H-pyrazolo[3,4-d]pyrimidin-6-yl}amino)cyclobutanol]	< 0.01 (stable) L/h/kg	100 (stable) %	5.65			
O=C1CN(C2CN(c3nc(N[C@H]4C[C@H](O)C4)nc4c3cnn4-c3cccc(C(F)F)c3)C2)CCN1 [II-27, 4-(1-{1-[3-(difluoromethyl)phenyl]-6-[(trans-3-hydroxycyclobutyl)amino]-1H-pyrazolo[3,4-d]pyrimidin-4-yl}azetidin-3-yl)piperazin-2-one]	< 0.01 (stable) L/h/kg	100 (stable) %	4.75			

Now from value to compound:

CLblood, human microsomes [1]	Fmax, human microsomes [1]	IC50 (human IRAK4) [nM]	IC50 (canine Irak4) [nM]	CLblood, dog microsomes [2]	Fmax, dog microsomes [2]	SMILES
0.29 L/h/kg	78%	9.22				CCS(=O)(=O)N1CC(Nc2nc(N3CCC(C(C)(C)O)CC3)c3cnn(-c4cccc(C(F)F)c4)c3n2)C1 [II-31, 2-[1-(1-[3-(difluoromethyl)phenyl]-6-{[1-(ethylsulfonyl)azetidin-3-yl]amino}-1H-pyrazolo[3,4-d]pyrimidin-4-yl)piperidin-4-yl]propan-2-ol]
0.07 L/h/kg	95%	3.49				CS(=O)(=O)[C@H]1C[C@H](Nc2nc(N3CC[C@@H](O)C3)c3cnn(-c4cccc(C(F)F)c4)c3n2)C1 [II-34, (3R)-1-(1-[3-(difluoromethyl)phenyl]-6-{[(1r,3R)-3-(methylsulfonyl)cyclobutyl]amino}-1H-pyrazolo[3,4-d]pyrimidin-4-yl)pyrrolidin-3-ol]
0.10 L/h/kg	93%	6.8				C[C@@]1(O)CCN(c2nc(N[C@H]3C[C@H](S(C)(=O)=O)C3)nc3c2cnn3-c2cccc(C(F)F)c2)C1 [II-35, (3R)-1-(1-[3-(difluoromethyl)phenyl]-6-{[(1r,3R)-3-(methylsulfonyl)cyclobutyl]amino}-1H-pyrazolo[3,4-d]pyrimidin-4-yl)-3-methylpyrrolidin-3-ol]
0.32 L/h/kg	76%	3.42		< 0.01 (stable) L/h/kg	100 (stable) %	CC(C)(O)C1CCN(c2nc(N[C@H]3C[C@H](S(C)(=O)=O)C3)nc3c2cnn3-c2cccc(OC(F)F)c2)CC1 [IV-2, 2-[1-(1-[3-(difluoromethoxy)phenyl]-6-{[trans-3-(methylsulfonyl)cyclobutyl]amino}-1H-pyrazolo[3,4-d]pyrimidin-4-yl)piperidin-4-yl]propan-2-ol]
0.14 L/h/kg	89%	6.61				CS(=O)(=O)N1CC(Nc2nc(N3CCC(C4(N)CC4)CC3)c3cnn(-c4cccc(OC(F)F)c4)c3n2)C1 [IV-3, 4-[4-(1-aminocyclopropyl)piperidin-1-yl]-1-[3-(difluoromethoxy)phenyl]-N-[1-(methylsulfonyl)azetidin-3-yl]-1H-pyrazolo[3,4-d]pyrimidin-6-amine]
0.55 L/h/kg	58%	4.78				CC(C)(O)CC1CN(c2nc(N[C@H]3C[C@H](S(C)(=O)=O)C3)nc3c2cnn3-c2cccc(OC(F)F)c2)C1 [IV-4, 1-[1-(1-[3-(difluoromethoxy)phenyl]-6-{[trans-3-(methylsulfonyl)cyclobutyl]amino}-1H-pyrazolo[3,4-d]pyrimidin-4-yl)azetidin-3-yl]-2-methylpropan-2-ol]
